Source: US5801150A, “Aminopyri(mi)dine derivatives combined with amino acids, and pharmacological activities thereof” (priority 1993, dated 1998)

Key:
[1] = Capture of the hydroxyl radical: Fenton reaction, oxidative degradation of deoxyribose (532 nm); type: biochemical; conditions: for Mean k (speed constant of the reaction with OH°): mean of 2 or 3 tests; for Mean k (speed constant of the reaction with OH°) / k Obtained (speed constant of the reaction with OH°): pH 7.4, 37° C.; for k Obtained (speed constant of the reaction with OH°): individual values of 2 or 3 tests; for speed constant with respect to mannitol: ratio to mannitol
Text: The Fenton reaction, the catalytic decomposition of hydrogen peroxide (H2 O2) by the action of Fe^2+, has been used to produce the hydroxyl radical Because of its widespread use, the test of oxidative degradation of deoxyribose has been selected for our study. The hydroxyl radical generated by the Fenton reaction degrades the deoxyribose and produces malonaldehyde which forms a colored complex with thiobarbituric acid. This complex is quantified by colorimetry at a wavelength of 532 nm. This methodology can be represented by the following scheme: [drawing 11] The speed constants have been determined by using the Halliwell method with modifications. The final kinematic equation is the following [formula] A and A0 : absorbances at 532 nm of the complex in the presence and in the absence of the studied derivative. kS and kd : speed constants of the reaction of OH° with the studied derivative and deoxyribose. S and D: concentrations of studied derivative and of deoxyribose. kx : term representing the reactivity of the radical OH° reacting with reagents of the Fenton reaction. In tracing the straight line 1/A as a function of the concentration S, the speed constant kS is determined. […] The reaction is initiated by the addition of the iron EDTA complex (0.13 mM (NH4)2 Fe(SO4)2; 0.143 mM EDTA). After 15 mins. of incubation at 37° C., the reaction is stopped by the addition of 1.5 ml of cold trichloroacetic acid (TCA) (2.8%). 1 ml of this solution is mixed with 1 ml of thiobarbituric acid (TBA) (1% in 0.05M NaOH) and heated for 15 mins. at 100° C. Then, the specimens are cooled and quantified at 532 nm.

[2] = literature value; cited from earlier work
[3] = Sensing superoxide anion: auto-oxidation of adrenaline (adrenochrome at 480 nm); type: biochemical; conditions: for % of inhibition: pH 10.2; for IC50: superoxide anion, adrenaline auto-oxidation, read-out: concentration at which there is obtained 50% inhibition
Text: The methods used can produce selectively a chosen type of FR (superoxide anion or hydroxyl radical). The detector must be able to detect proportionally all the FR formed.
Step of production and detection of FR: the radicular source supplies the free radical which will react with a detector to form a modified detector. This latter could be quantified directly or after interaction with an analytic reaction complement by spectrophotometric analysis. [drawing 9]
Determination either of the percent of sensing or of the speed constant of the sensor: a sensor enters into competition with the detector to form a modified sensor. There is obtained a reduction of the quantity of the modified detector which gives us, after mathematical analysis, either the speed constant of the reaction of the sensor with the radical, or the percentage of sensing of this radical by the sensor.
The methodology is the auto-oxidation of adrenaline: adrenaline plays the double role of producing superoxide anion and serving as a detector. Adrenaline which is stable at acid pH, oxidizes spontaneously at alkaline pH. This complex reaction gives after several steps, adrenochrome. The superoxide anion participates in it as an oxidizing agent. The formation of adrenochrome is followed at 480 nm. [drawing 10] Capture of the superoxide anion: oxidation of adrenaline
The reaction medium is constituted by 3.1 ml of sodium carbonate (0.05M) at pH 10.2 containing EDTA (0.1 mM). The oxidation reaction is initiated by the addition of 0.2 ml of adrenaline (0.01M, in 0.02N HCl). The formation of adrenochrome is followed for 2 mins. at 480 nm. The compounds to be studied are added with the aide of 0.02 ml of DMSO, before the addition of adrenaline.
The capacity of the substances to sense the superoxide anion is expressed in terms of percentage of inhibition (%I). [formula] A0 and A are respectively the absorbance of the detector modified in the absence and in the presence of the derivative studied.

keratinocytes, hair = conditions: topical, cited from earlier work
[4] = topical application, cited from earlier work
[5] = apart from SOD; cited from earlier work

SMILES	Mean k (speed constant of the reaction with OH°) [1]	Literature k (speed constant of the reaction with OH°) [2]	% of inhibition ([3]; Conc. 0.6 mM)	k Obtained (speed constant of the reaction with OH°) [1]	% of inhibition ([3]; Conc. 0.1 mM) [%]	% of inhibition ([3]; Conc. 0.2 mM) [%]	% of inhibition ([3]; Conc. 0.3 mM) [%]	% of inhibition ([3]; Conc. 0.5 mM) [%]	IC50 [3] [µM]	other results
CSCC[C@H](NC(C)=O)C(=O)O [N-acetyl-methionine]	6.02 10^9 M^-1.s^-1	6.7 10^9 M^-1.s^-1	not observed activity	–	–	–	–	–	–	inhibition ([3]; 2 mM): 10%
Nc1cc(N2CCCCC2)nc(N)n1 [Reduced minoxidil]	8.81 10^9 M^-1.s^-1	–	–	8.47-9.16 10^9 M^-1.s^-1	–	–	–	–	–	speed constant with respect to mannitol [1]: five times
Nc1cc(N2CCCCC2)nc(N)[n+]1[O-] [Minoxidil, 2,4-diamino-6-piperidinopyrimidine-3-oxide]	10.80 10^9 M^-1.s^-1	–	82.70%	10.20-11.40 10^9 M^-1.s^-1	25.62	41.86	57.20	74.12	~250	growth of keratinocytes and of hair (keratinocytes, hair; certain subjects having androgenic alopecy): stimulates the in vitro and in vivo growth of keratinocytes, and the growth of hair; time of use to appearance of the growth phenomenon (keratinocytes, hair; varies as a function of the subjects): about four months (or more); average quantity of the applied dose reaching the blood stream ([4]; average): 1.4%; quantity of the applied dose reaching the blood stream, range ([4]; range of values): 0.3 to 4.5%; % of inhibition ([3]; Conc. 0.05 mM): 11.71%
CSCCC(NC(C)=O)C(=O)Nc1cc(N2CCCCC2)nc(N)[n+]1[O-] (racemic) [Monosubstituted (N-acetyl-methionine), amide of 2,4-diamino-6-piperidinopyrimidine-3-oxide and N-acetyl-D,L-methionine]	13.25 10^9 M^-1.s^-1	–	32.01%	13.10-13.40 10^9 M^-1.s^-1	7.57	14.49	19.38	27.17	–	% of inhibition ([3]; Conc. 0.4 mM): 25.71%; % of inhibition ([3]; Conc. 0.6 mM, listed as monosubstituted compound): 32%
N[C@@H](CS)C(=O)O [cysteine]	–	–	–	–	–	–	–	–	~51	reactivity with respect to the superoxide anion [5]: most reactive with respect to the superoxide anion; % of inhibition ([3]; cysteine 0.005 mM): 6.52%; % of inhibition ([3]; cysteine 0.008 mM): 8.58%; % of inhibition ([3]; cysteine 0.01 mM): 9.61%; % of inhibition ([3]; cysteine 0.03 mM): 31.72%; % of inhibition ([3]; cysteine 0.04 mM): 34.45%; % of inhibition ([3]; cysteine 0.05 mM): 46.71%; % of inhibition ([3]; cysteine 0.06 mM): 51.93%; % of inhibition ([3]; cysteine 0.07 mM): 57.17%
CSCC[C@H](N)C(=O)O [Methionine]	5.19 10^9 M^-1.s^-1	6.5 10^9 M^-1.s^-1	–	5.02-5.36 10^9 M^-1.s^-1	–	–	–	–	–	–
OC[C@@H](O)[C@@H](O)[C@H](O)[C@H](O)CO [Mannitol]	1.68 10^9 M^-1.s^-1	1.8 10^9 M^-1.s^-1	–	1.52-1.84 10^9 M^-1.s^-1	–	–	–	–	–	–
CSCCC(NC(C)=O)C(=O)Nc1cc(N2CCCCC2)nc(NC(=O)C(CCSC)NC(C)=O)[n+]1[O-] (racemic) [Disubstituted (N-acetyl-methionine), diamide of 2,4-diamino-6-piperidinopyrimidine-3-oxide and N-acetyl-D,L-methionine]	19.45 10^9 M^-1.s^-1	–	43.75%	19.40-19.50 10^9 M^-1.s^-1	10.56	15.62	25.99	38.71	~670	speed constant with respect to mannitol [1]: more than eleven times; % of inhibition ([3]; Conc. 0.4 mM): 30.77%; % of inhibition ([3]; Conc. 0.7 mM): 53.22%
